Results reported in patent US20260069656A1, “Nutritive Polypeptides and Formulations Thereof, and Methods of Production and Use Thereof” (Axcella Health Inc., priority 2013, published 2026).

Legend:
[1] = Thermostability, ProteoStat Thermal Shift Stability Kit, temperature of aggregation; format: physicochemical; details: pH 7.1; heated from 25° C. to 95° C.
Procedure: Thermostability. The thermostability of proteins in a buffer cocktail of Citric Acid and Dibasic Sodium Phosphate over a pH range of 2.8 to 7.1 (preparation described above in Table E31B) was determined using the ProteoStat® Thermal Shift Stability Kit (Enzo Life Sciences) according to the manufacturer's standard protocol. Briefly, protein solutions (˜10 mg/ml) containing 1× ProteoStat TS Detection Reagent were heated from 25° C. to 95° C. at a rate of 0.5° C. per 30 sec using a real-time PCR (rtPCR) thermocycler (BioRad) equipped with a plate reader (SynergyMx, Biotek) while monitoring the fluorescence with a Texas Red filter.

[2] = Rat pharmacokinetic studies, plasma amino acids by HPLC; details: oral administration to rats
Procedure: Rat pharmacokinetic studies. Male Sprague Dawley rats with indwelling jugular vein cannula (JVC) were purchased from Harlan Laboratories and acclimated to the Test Facility (Agilux Laboratories) for at least two days prior to study initiation. Prior to dose administration animals were fasted overnight (11-13 h) and remained fasted until completion of the study. Test articles were orally administered via a bulb-tipped 18 gauge stainless steel gavage needle attached to a syringe. The weight of all dose syringes were recorded prior to and following dosing to more accurately determine the amount of solution dosed. Serial blood samples (˜300 μL) were collected from the JVC at time 0 (pre-dose) and 0.25, 0.5, 1, 2, and 4 h post-dose. Blood samples were collected into tubes containing the anti-coagulant K2EDTA, a general protease inhibitor cocktail (Sigma P8340, diluted 1:100 in whole blood), and a DPP IV inhibitor (Millipore DPP4, diluted 1:100 in whole blood). Immediately following blood collection tubes were vortexed and stored on wet ice until processing to plasma by centrifugation (3,500 rpm at 5° C.) within 1 h of collection. Plasma samples were then transferred into new tubes and stored at −80° C.
The concentration of Glu, Ser, His, Gly, Thr, Arg, Ala, Tyr, Val, Met, Phe, Ile, Leu, and Lys in the plasma samples was determined by HPLC amino acid analysis, as described herein. Prior to HPLC amino acid analysis, insoluble particles were removed from plasma samples by centrifugation (1100×g at 4° C.) for 10 min. A 25 μL sample of the soluble fraction was then transferred to a 96-well plate, for some samples an internal standard (Norvaline, Agilent) was added to each plasma sample at final concentration of 0.5 mM.

GLP-2 = assay: Total GLP-2 ELISA, plasma GLP-2 in healthy fasted rats; format: in vivo, rat
Procedure: Animals were treated and acutely dosed with test articles as part of pharmacokinetic rodent experiments according to methods described herein. In this experiment, two test articles were analyzed, vehicle and a nutritive formulation of SEQID-240, dosed at 1.54 g/kg.
Total GLP-2 was measured with Millipore Total GLP-2 ELISA Kit (Millipore, EZGLP2-37K). The ELISA kit was equilibrated to room temperature for a minimum of 30 minutes prior to running the assay. The kit GLP-2 Standard, Quality Control 1 and Quality Control 2 were reconstituted with 500 μL MilliQ water, inverted 5 times and incubated at room temperature for 5 minutes, then gently vortexed to mix. The standard curve was prepared by diluting the GLP-2 Standard serially 1:1 in kit Assay Buffer to generate an eight point standard curve including 0 ng/mL GLP-2. Plasma samples were thawed on ice and centrifuged for 10 minutes at approximately 1109× rcf to pellet insoluble material. Fasted plasma matrix from untreated, fasted rat was prepared for running the standard and quality controls in duplicate at 20% (2×).
1× Wash Buffer was prepared in a clean 500 mL glass bottle by combining 50 mL 10× Wash Buffer with 450 mL MilliQ water. Strips were prepared by washing 3 times with 300 μL 1× Wash Buffer applied with a 30-300 μL 8-channel pipette. Between washes the wash buffer was decanted into a waste receptacle and the plate tapped sharply on a stack of paper towels to remove remaining wash buffer.
Following the first wash, 90 μL of Assay Buffer was added to sample wells, and 50 μL of 20% matrix in Assay Buffer was added to all standard and quality control wells. 10 μL of sample was added to each sample well and 50 μL of standard and quality control were added to matrix containing wells. Samples, standards and quality control wells were run in duplicate, except for 0 ng/mL GLP-2 standard which was run in quadruplicate.
The plate was sealed with a plastic plate seal and incubated at room temperature on a horizontal plate shaker at 450 rpm for 2 hours. Following the first incubation, the plate was washed three times with 1× Wash Buffer, decanting into a waste receptacle and tapping the inverted plate sharply on a stack of paper towels to remove excess wash buffer after each wash.
100 μL of Detection Antibody was added to each well and the plate was sealed with a plastic plate seal and incubated at room temperature on a horizontal plate shaker at 450 rpm for 1 hour. […]
Absorbance was measured on a SynergyMX Plate Reader at 450 nm and 590 nm. Measured values were the difference between 450 nm and 590 nm absorbance values.
Data were analyzed with GraphPad Prism 6.03. […]

With “SEQID-00240: nutritive polypeptide naturally produced in Cow, recombinantly expressed in E. coli (DLEGSLEQEKKLRMDLERAKRKLEGDLKLAQESTMDIENDKQQLDEKLKK; listed as Bos taurus)” the “Tagg (pH 7.1)” value [1] was >95, the “plasma Phe concentration” value [2] was “causing no flux in plasma Phe concentration” and the “change in AUC0-4 h for plasma Lys” value ([2]; doses of Table E33A) was “increased the change in AUC0-4 h for plasma Lys”. For the same substance, the “GLP-2 area under curve vs vehicle” value (GLP-2; 0-60 minutes, P<0.005) was “significantly greater in the SEQID-00240 treatment compared to vehicle”, the “GLP-2 area under curve vs vehicle” value (GLP-2; 0-240 minutes, P<0.01) was “significantly greater in the SEQID-00240 treatment compared to vehicle” and the “total GLP-2 concentration vs vehicle” value (GLP-2; 1.54 g/kg, at 15, 30, 60 and 120 minutes following treatment) was “statistically significantly greater than vehicle”. The “total GLP-2 concentration relative to time 0” value (GLP-2; 1.54 g/kg, at 15, 30 and 60 minutes following gavage) was “statistically significant increase in GLP-2 concentration relative to time 0”.
